From paper PMC6010102, “N-thioalkylcarbazoles derivatives as new anti-proliferative agents: synthesis, characterisation and molecular mechanism evaluation” (Journal of Enzyme Inhibition and Medicinal Chemistry, 2018)

How the values were obtained:
caspase-8 = test: Caspase-Glo assay, caspase-8; assay type: cell-based, human; conditions: HeLa cells, concentration equal to IC50, 24 h
Method: (§1) Caspases-3/7, -8 and -9 activities were measured with the Caspase-Glo Assay, according to the guidelines of manufacturer (Caspase-Glo® 3/7, 8 and 9 Assay Systems, Promega Corporation, Madison, WI) as described in Iacopetta et al.[43].

Parp-1 = Parp-1 cleavage immunoblot in HeLa cells; assay type: cell-based, human; conditions: 10 µM, 24, 48 and 72 h, western blot
Method: Cells were serum deprived for 24 h, treated for 24, 48 and 72 h with the compound to be tested. At the end, cells were rinsed twice with ice cold PBS and immediately lysed in lysis buffer (50 mM Tris-HCl, pH 7, 5–8; 150 mM NaCl, 1% Igepal CA-630; 0.1% SDS; 0.5% sodium deoxycholate) containing 1% sodium orthovanadate and 1% phenylmethylsulphonyl fluoride (PMSF). Cell lysates were cleared by centrifugation at 14,000 g for 10 min at 4 °C. Protein concentrations were determined using the Bradford protein assay[40] (Bio-Rad Laboratories, Milan, Italy) according to the directions from the manufacturer. Equal amounts of cell extracts (about 20 µg) were resolved under denaturing conditions by electrophoresis in 10% polyacrylamide gels containing SDS (SDS-PAGE) and transferred to nitrocellulose membranes by electroblotting (GE Healthcare, Piscataway, NJ). […] After incubation with the appropriate secondary antibody (VWR International PBI, MI, Italy) for 1 h at room temperature, the proteins of interest were detected on the membranes by using enhanced chemiluminescence (Amersham ECL Prime Western Blotting Detection Reagent, GE Healthcare, Piscataway, NJ).

caspases 3 and 7 = test: Caspase-Glo assay, caspases 3/7; assay type: cell-based, human; conditions: HeLa cells, concentration equal to IC50, 24 h
Method: as §1

[1] = tested on: MCF-7 human breast cancer cells; test: MTT cell viability, MCF-7; assay type: cell-based; conditions: MCF7, 72 h exposure, mean ± SD, read-out: Antiproliferative activity IC50, MCF-7
Source text: The six cell lines used in this work were purchased from American Type Culture Collection (ATCC, Manassas, VA). MCF-7 human breast cancer cells, oestrogen receptor (ER) positives, were maintained in Dulbecco’s Modified Eagle’s Medium/Nutrient Mixture F-12 Ham (DMEM/F12), supplemented with 5% foetal bovine serum (FBS) and 100 U/ml penicillin/streptomycin, as previously described. MDA-MB-231, human breast cancer cells, oestrogen receptor (ER) negative, were maintained in Dulbecco’s Modified Eagle’s Medium/Nutrient Mixture F-12 Ham (DMEM/F12), supplemented with 5% Newborn Calf Serum (NCS) and 100 U/ml penicillin/streptomycin. HeLa human epithelial cervix carcinoma cells, oestrogen receptor (ER) negative, and ISHIKAWA human endometrial adenocarcinoma cell, oestrogen receptor positive, were maintained in minimum essential medium (MEM), supplemented with 10% FBS, 100 U/ml penicillin/streptomycin and 1% non-essential amino acid. 3T3-L1 cells line of murine fibroblasts of embryonic type, were maintained in DMEM, supplemented with 10% NCS and 100 U/ml penicillin/streptomycin. MCF-10A human mammary epithelial cells were cultured in DMEM/F12 medium, supplemented with 5% horse serum (HS) (Eurobio, Les Ullis, Cedex, France), 100 U/ml penicillin/streptomycin, […] hydrocortisone, 20 ng/ml hEGF (human epidermal growth factor), 10 μg/ml insulin and […] cholera enterotoxin (Sigma-Aldrich, Milano, Italy). Cells were maintained at 37 °C in a humidified atmosphere of 95% air and 5% CO2 and periodically screened for contamination.
MDA-MB-231, MCF-7, HeLa and ISHIKAWA cells were grown in complete medium and, before being treated, they were serum deprived for 24 h, to allow cell cycle synchronisation. Then cells were grown in phenol red-free medium supplemented with 1% DCC (destran-coated charcoal treated) FBS, then treated with increasing concentrations (0.1, 1, 10, 20, 40, 100 µM) of each compound for 72 h. Compounds were dissolved in dimethylsulphoxide (DMSO) (Sigma, St. Louis, MO) and diluted in each cell medium. Untreated cells, used as a control, were added with DMSO alone (final concentration 0.1%). Cell viability was assessed using the 3-[4,5-dimethylthiazol-2-yl]-2,5-diphenyltetrazolium bromide reagent (MTT), according to the protocol from manufacturer (Sigma-Aldrich, Milan, Italy), as previously described[37] ^, [38]. For each sample, the mean absorbance, measured at 570 nm, was expressed as a percentage of the control and plotted versus drug concentration to determine for each cell line the IC50 values (namely, drugs concentrations able to reduce cell viability of 50% with respect to the control), using GraphPad Prism 5 Software (GraphPad Inc., San Diego, CA)[39]. Each experiment was carried out in quadruplicate. Standard deviations (SD) were shown.

Q: Which results are given for `Cc1ccc(C)c2c1c1cc(Br)ccc1n2CCCCCCCS` [5c, 7-(6-Bromo-1,4-dimethyl-9H-carbazol-9-yl)-heptane-1-thiol]?
A: caspase-8 activity (caspase-8): no increase of caspase-8 activity; Parp-1 cleavage (about 89 KDa form) (Parp-1): presence of the cleaved form of Parp-1; caspases 3 and 7 activity (caspases 3 and 7): clear increase of caspases 3 and 7 activity; IC50 [1]: 54.9 ± 1 µM
